Drawing on US8759549B2, “Compound extracted from Antrodia cinnamomea and pharmaceutical composition comprising the same” (priority 2010, dated 2014), this text covers IC50 for 3 compounds.

Read-outs that look alike come from different tables or passages of the source.

Assay [1] has as its system Colo205 human colorectal cancer cell line. The assay is described as follows: In vitro anti-cancer activity, Colo205 human colorectal cancer cells. Type of assay: cell-based. Conditions: COLO 205. The method, then: (§1) The anti-cancer effect compound of formula (2) and compounds (3) and (4) were evaluated using the HT29 and Colo205 human colorectal cancer cell lines.
(§2) Human colorectal cancer cells HT29 and Colo205 were plated in a 96-well plate, at a concentration of 1×10^4-5 cells/well. The human colorectal cancer cells were incubated at 37° C. with 5% CO2 overnight. These cancer cells were washed three times with a serum free medium or a phosphate buffer solution (PBS) the next day. The compound of Formula (2) and Compounds (3) and (4) were added to the HT29 and Colo205 human colorectal cancer cells respectively. The experiment was performed three times and the average IC50 value was calculated.

Assay [2] has as its system HT29 human colorectal cancer cell line. Nature of the assay: In vitro anti-cancer activity, HT29 human colorectal cancer cells. Type of assay: cell-based. The settings on record: HT-29. The protocol: as §1, §2
Setting [3] is: Colo205 human colorectal cancer cells, average of three experiments, FIG. 7, read-out: IC50.
Setting [4] is: HT29 human colorectal cancer cells, average of three experiments, FIG. 6, read-out: IC50.

As to `COc1cc(C)c(OC)c2c1OCO2` [Compound (4)], the IC50 in assay [1] (setting [3]) and in assay [2] (setting [4]) was greater than 100 µM each time.
On to `C=C(C)C#Cc1c(C)c(OC)c(OC)c(OC)c1OC` [compound (3)], for which the figures for the IC50 in assay [1] (Homo sapiens) and in assay [2] (Homo sapiens) were 42 µM and 59 µM, respectively.
In the case of `C=C(C)C#Cc1c(C)c(OC)c2c(c1OC)OCO2` [formula (2), 1,2-methylenedioxy-3,6-bismethoxy-4-(3-methyl-3-alkene-1-butyne)-5-methylbenzene], the IC50 in assay [1] (setting [3]) turned out to be 9 µM; in assay [2] (setting [4]), 66 µM.
